{
  "source": "ChEMBL document CHEMBL3046417",
  "about": "(2009)",
  "key": {"Cnaphalocrocis medinalis [1]": {"test_system": "Cnaphalocrocis medinalis", "assay": "Antifeedant activity against fourth-instar of Cnaphalocrocis medinalis in IR20 rice plant leaf assessed as leaf scraped at 12 ppm after 24 hr", "assay_type": "functional"}, "Cnaphalocrocis medinalis [2]": {"test_system": "Cnaphalocrocis medinalis", "assay": "Reduction of egg production in third-instar of Cnaphalocrocis medinalis in IR20 rice plant leaf assessed as oviposition deterrence index at 12 ppm relative to control", "assay_type": "functional", "parameters": "scale not given: the % may be the effect or the level left"}, "Cnaphalocrocis medinalis [3]": {"test_system": "Cnaphalocrocis medinalis", "assay": "Antifeedant activity against fourth-instar of Cnaphalocrocis medinalis in IR20 rice plant leaf at 12 ppm after 4 days", "assay_type": "functional, organism-based"}, "Cnaphalocrocis medinalis [4]": {"test_system": "Cnaphalocrocis medinalis", "assay": "Antifeedant activity against fourt-instar of Cnaphalocrocis medinalis in IR20 rice plant leaf assessed as leaf scraped at 1.5 ppm after 24 hr", "assay_type": "functional"}, "Cnaphalocrocis medinalis [5]": {"test_system": "Cnaphalocrocis medinalis", "assay": "Reduction of larval normal weight gain time in third-instar of Cnaphalocrocis medinalis in IR20 rice plant leaf at 3 ppm after 25 days (reference value: 23.5 +/- 0.56 days)", "assay_type": "functional"}, "Cnaphalocrocis medinalis [6]": {"test_system": "Cnaphalocrocis medinalis", "assay": "Reduction of larval normal weight gain time in third-instar of Cnaphalocrocis medinalis in IR20 rice plant leaf at 12 ppm after 25 days (reference value: 23.5 +/- 0.56 days)", "assay_type": "functional"}, "Cnaphalocrocis medinalis [7]": {"test_system": "Cnaphalocrocis medinalis", "assay": "Reduction of egg production in third-instar of Cnaphalocrocis medinalis in IR20 rice plant leaf assessed as oviposition deterrence index at 6 ppm relative to control", "assay_type": "functional", "parameters": "scale not given: the % may be the effect or the level left"}, "Cnaphalocrocis medinalis [8]": {"test_system": "Cnaphalocrocis medinalis", "assay": "Reduction of larval weight gain in third-instar of Cnaphalocrocis medinalis in IR20 rice plant leaf at 12 ppm after 48 hr (reference value: 23.7 mg)", "assay_type": "functional"}, "Cnaphalocrocis medinalis [9]": {"test_system": "Cnaphalocrocis medinalis", "assay": "Antifeedant activity against fourth-instar of Cnaphalocrocis medinalis in IR20 rice plant leaf at 6 ppm after 4 days", "assay_type": "functional"}, "Cnaphalocrocis medinalis [10]": {"test_system": "Cnaphalocrocis medinalis", "assay": "Reduction of larval weight gain in third-instar of Cnaphalocrocis medinalis in IR20 rice plant leaf at 6 ppm after 25 days", "assay_type": "functional"}, "Cnaphalocrocis medinalis [11]": {"test_system": "Cnaphalocrocis medinalis", "assay": "Reduction of fecundity in third-instar of Cnaphalocrocis medinalis in IR20 rice plant leaf at 3 ppm relative to control", "assay_type": "functional", "parameters": "scale not given: the % may be the effect or the level left"}, "Cnaphalocrocis medinalis [12]": {"test_system": "Cnaphalocrocis medinalis", "assay": "Reduction of larval normal weight gain time in third-instar of Cnaphalocrocis medinalis in IR20 rice plant leaf at 6 ppm after 25 days (reference value: 23.5 +/- 0.56 days)", "assay_type": "functional"}, "Cnaphalocrocis medinalis [13]": {"test_system": "Cnaphalocrocis medinalis", "assay": "Reduction of fecundity in third-instar of Cnaphalocrocis medinalis in IR20 rice plant leaf at 6 ppm relative to control", "assay_type": "functional", "parameters": "scale not given: the % may be the effect or the level left"}, "Cnaphalocrocis medinalis [14]": {"test_system": "Cnaphalocrocis medinalis", "assay": "Reduction of fecundity in third-instar of Cnaphalocrocis medinalis in IR20 rice plant leaf at 25 ppm relative to control", "assay_type": "functional", "parameters": "scale not given: the % may be the effect or the level left"}, "Cnaphalocrocis medinalis [15]": {"test_system": "Cnaphalocrocis medinalis", "assay": "Antifeedant activity against fourth-instar of Cnaphalocrocis medinalis in IR20 rice plant leaf at 1.5 to 3 ppm after 4 days", "assay_type": "functional, organism-based"}, "Cnaphalocrocis medinalis [16]": {"test_system": "Cnaphalocrocis medinalis", "assay": "Reduction of egg fertility in third-instar of Cnaphalocrocis medinalis in IR20 rice plant leaf assessed as oviposition deterrence index at 6 to 12 ppm", "assay_type": "functional, organism-based"}, "Cnaphalocrocis medinalis [17]": {"test_system": "Cnaphalocrocis medinalis", "assay": "Antifeedant activity against fourth-instar of Cnaphalocrocis medinalis in IR20 rice plant leaf assessed as leaf scraped at 12 ppm after 48 hr", "assay_type": "functional, organism-based"}, "Cnaphalocrocis medinalis [18]": {"test_system": "Cnaphalocrocis medinalis", "assay": "Reduction of larval weight gain in third-instar of Cnaphalocrocis medinalis in IR20 rice plant leaf at 3 ppm after 48 hr (reference value: 23.7 mg)", "assay_type": "functional"}, "Cnaphalocrocis medinalis [19]": {"test_system": "Cnaphalocrocis medinalis", "assay": "Reduction of larval weight gain in third-instar of Cnaphalocrocis medinalis in IR20 rice plant leaf at 6 ppm after 48 hr (reference value: 23.7 mg)", "assay_type": "functional"}},
  "note": "Active and inactive are the calls of the source. The rule behind the calls is not given here.",
  "data": [
    {"smiles": "CC(C)=CC(=O)C[C@@H](C)[C@H]1CC[C@@]2(C)[C@@H]3CC[C@@H]4[C@@]5(CC(=O)OC[C@@]4(C)C(=O)O)C[C@@]35CC[C@]12C", "note": "[BEDDOMEILACTONE]", "values": [
      {"measurement": "Activity", "setting": "Cnaphalocrocis medinalis [1]", "result": 0.87, "unit": "cm2"},
      {"measurement": "Activity", "setting": "Cnaphalocrocis medinalis [2]", "result": 83, "unit": "%"},
      {"measurement": "Activity", "setting": "Cnaphalocrocis medinalis [3]", "result": "Active"},
      {"measurement": "Activity", "setting": "Cnaphalocrocis medinalis [4]", "result": 8.97, "unit": "cm2"},
      {"measurement": "Time", "setting": "Cnaphalocrocis medinalis [5]", "result": 37.2, "unit": "days"},
      {"measurement": "Time", "setting": "Cnaphalocrocis medinalis [6]", "result": 48.3, "unit": "days"},
      {"measurement": "Activity", "setting": "Cnaphalocrocis medinalis [7]", "result": 60, "unit": "%"},
      {"measurement": "Activity", "setting": "Cnaphalocrocis medinalis [8]", "result": 7.2, "unit": "mg"},
      {"measurement": "Activity", "setting": "Cnaphalocrocis medinalis [9]", "result": 80, "unit": "%"},
      {"measurement": "Activity", "setting": "Cnaphalocrocis medinalis [10]", "result": 12.1, "unit": "mg"},
      {"measurement": "Activity", "setting": "Cnaphalocrocis medinalis [11]", "result": 39, "unit": "%"},
      {"measurement": "Time", "setting": "Cnaphalocrocis medinalis [12]", "result": 39.2, "unit": "days"},
      {"measurement": "Activity", "setting": "Cnaphalocrocis medinalis [13]", "result": 19, "unit": "%"},
      {"measurement": "Activity", "setting": "Cnaphalocrocis medinalis [14]", "result": 3, "unit": "%"},
      {"measurement": "Activity", "setting": "Cnaphalocrocis medinalis [15]", "result": "Active"},
      {"measurement": "Activity", "setting": "Cnaphalocrocis medinalis [16]", "result": "Active"},
      {"measurement": "Activity", "setting": "Cnaphalocrocis medinalis [17]", "result": "Active"},
      {"measurement": "Activity", "setting": "Cnaphalocrocis medinalis [18]", "result": 13.6, "unit": "mg"},
      {"measurement": "Activity", "setting": "Cnaphalocrocis medinalis [19]", "result": 10.2, "unit": "mg"}
    ]}
  ]
}
